# Key:
# [1] = In vitro plasma protein binding (ultrafiltration), human; assay type: in vitro ADME; settings: plasma, 10-10 000 ng/mL
# Description: (§1) Stock solutions were spiked into plasma to achieve the intended concentrations. After incubation for 1 hour at 37°C under constant gentle agitation, the spiked plasma samples (n = 3) were centrifuged (2000 g, 10 min, 37°C) in pre‐warmed Centrifree devices. Total radioactivity was determined in the ultrafiltrate (Cu, concentration of unbound compound) and in the sample introduced into the reservoir before ultrafiltration (Cp). The unbound (fu) and the bound (fb) fraction in plasma were calculated as follows: fu (%) = Cu/Cp × 100; fb (%) = 100‐Fu (%).
# plasma protein = experiment: as above; assay type: in vitro ADME; settings: rat, dog
# Description: as §1
# [2] = Tissue distribution by quantitative whole-body autoradiography (QWBA); assay type: in vivo; settings: rat QWBA
# Description: ADME studies (including QWBA in pigmented and non‐pigmented rats) using radiolabeled ribociclib were conducted in rat and dog. Relevant institutional and national guides for the care and use of laboratory animals were followed.
# QWBA studies were conducted with the tritium label in Hanover Wistar and partially pigmented Long‐Evans rats. A further QWBA study was conducted with the carbon‐14 label in male Long Evans rats in order to support the dosimetry calculation for the human ADME study. Briefly, 40‐µm thick lengthwise dehydrated whole body sections were exposed for 1 day to Fuji BAS III imaging plates (Fuji Photo Film Co., Ltd., J‐Tokyo) in a lead‐shielded box and room temperature, and scanned in a Fuji BAS 5000 phosphor imager at a 50‐µm scanning step. Concentrations of total radiolabeled components in the tissues were determined by comparative densitometry and digital analysis of the autoradiogram; blood samples of known radioactivity concentrations processed under the same conditions as the samples to analyze were used as calibrators.
# Rat milk excretion study = assay type: in vivo; settings: female, milk (relative to plasma), lactating rats, read-out: milk exposure (AUCinf) relative to plasma exposure
# Description: Metabolite profiling was conducted on plasma, urine, bile, and feces samples in the rat and dog ADME studies, and further metabolite profiling on plasma and milk was conducted in a dedicated rat milk excretion study.
# Plasma samples obtained from these studies were extracted with equal volumes of acetonitrile. Additional extractions of the protein pellet with acetonitrile and/or acetone were conducted as needed to maximize radioactivity recovery. Feces samples were initially extracted with two to four volumes of acetonitrile. Additional extractions of the pellet following centrifugation and removal of supernatant were conducted with acetonitrile and/or acetone as needed to maximize radioactivity recovery. Urine and bile samples were analyzed directly following centrifugation. Radioactivity recoveries following the centrifugation step were measured by LSC. Milk samples were extracted with two volumes of acetonitrile, following centrifugation and removal of supernatant, the pellets were re‐suspended in 100 µL of water and re‐extracted with 200 µL acetonitrile.
# [3] = tested on: hepatic P450 isoenzymes (total); experiment: Biotransformation by a panel of 17 recombinant human CYPs and three FMOs; assay type: in vitro ADME; settings: human, recombinant human CYPs, scaled to human liver microsomes, pH 7.4; sum over CYPs, based on recombinant enzyme data; read-out: Rel.Clint,u in HLM, total of hepatic P450 isoenzymes
# Description: (§2) In vitro incubations were carried out in 100‐mM potassium phosphate buffer (pH 7.4) and 5‐mM MgCl2 with a total volume of 200 µL. Substrate and either human liver microsomes (HLM, BD Biosciences, mixed gender pool of n = 50) or recombinant human enzymes (BD Biosciences) were added and pre‐incubated for 3 minutes at 37°C. The reaction was started by addition of a fresh solution of NADPH (1 mmol/L final concentration). The samples were incubated at 37°C with agitation of 500 rpm. For incubations with CYP2A6, CYP2C9, CYP2C18, and CYP4A11, the phosphate buffer was replaced by TRIS buffer (100 mmol/L, pH 7.4) and for flavin‐containing monooxygenases (FMOs), a glycine buffer (50 mM, pH 9.5) was used.
# (§3) The enzymatic reaction was stopped and the protein was precipitated by addition of an equal volume of methanol. After 30 min at −80°C, the samples were centrifuged at 30'000 x g for 15 min. The supernatant was withdrawn. Aliquots were analyzed by LSC and the supernatant was diluted with water to obtain a final solution containing less than 20% of the organic solvent. For samples of low substrate concentration, supernatants were evaporated to dryness under nitrogen, then re‐suspended in water containing less than 20% of methanol. Samples were analyzed by HPLC combined with radiodetection.
# (§4) The relative contribution of CYP enzymes to oxidative hepatic metabolism was determined using their Clint values multiplied by the unbound fraction in microsomes and their abundances in human liver microsomes. ^15 Among the hepatic P450 enzymes, CYP3A4 contributed predominantly (97%) to metabolism in human liver microsomes (Table 1) with negligible fraction metabolized by CYP1A2 (1.1%), CYP2J2 (0.8%), and CYP3A5 (1.2%).
# [4] = tested on: recombinant human CYPs and FMOs; experiment: as above; assay type: in vitro ADME
# Description: as §2, §3, §4
# CYP2J2 = biological target: T1, CYP2J2 (Homo sapiens, UniProt P51589); experiment: Enzyme kinetics with recombinant CYP2J2 and scaling to HLM; assay type: in vitro ADME
# T1 construct: purchased BD Biosciences
# T1 sequence (P51589 1-502): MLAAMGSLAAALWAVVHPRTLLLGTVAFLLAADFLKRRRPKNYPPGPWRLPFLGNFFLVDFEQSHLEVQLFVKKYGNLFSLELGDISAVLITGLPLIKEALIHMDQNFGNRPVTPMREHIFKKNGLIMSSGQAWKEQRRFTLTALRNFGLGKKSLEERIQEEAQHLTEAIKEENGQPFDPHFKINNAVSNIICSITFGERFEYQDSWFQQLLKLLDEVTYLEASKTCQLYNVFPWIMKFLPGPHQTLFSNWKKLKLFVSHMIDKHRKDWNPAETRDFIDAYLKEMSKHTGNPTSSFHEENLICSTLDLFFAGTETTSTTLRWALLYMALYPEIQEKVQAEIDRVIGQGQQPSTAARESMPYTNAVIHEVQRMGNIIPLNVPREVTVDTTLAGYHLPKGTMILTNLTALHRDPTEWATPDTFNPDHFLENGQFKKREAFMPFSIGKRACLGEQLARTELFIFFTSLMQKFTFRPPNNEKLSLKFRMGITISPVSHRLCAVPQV
# Description: as §2
# as §3, with “radiodetection. […]” for “radiodetection.”
structure (smiles),measurement,setting,value
"CN(C)C(=O)c1cc2cnc(Nc3ccc(N4CCNCC4)cn3)nc2n1C1CCCC1 [ribociclib, Ribociclib]",fraction unbound at 1 h,[1],0.3 ± 0.02
same,difference in unbound fraction in plasma between species,plasma protein,up to 1.7 fold
same,time of last measurable concentration (total radioactivity),[2]; 52 of 58 tissues investigated,≤ 48 h
same,time of last measurable concentration (total radioactivity),"[2]; eyes and meninges, last observation time point",840 h
same,tissue distribution of total radioactivity,[2]; intravenous or oral dose,"marked distribution into the extravascular compartment, except for brain"
same,time of last measurable concentration (total radioactivity),"[2]; lymph nodes, preputial gland, testis",168 h
same,Kp,Rat milk excretion study,3.6
same,microsomal CLint,[3],49.2 µL/min/mg
same,turnover by recombinant enzymes,"[4]; CYP1A2, CYP3A5, FMO3, and FMO5, 0.75 and 20 µmol/L, 15 min",Low metabolic activities
same,turnover by recombinant enzymes,"[4]; CYP1B1, CYP2A6, CYP2B6, CYP2C8, CYP2C9, CYP2C18, CYP2C19, CYP2D6, CYP2E1, CYP4A11, and CYP4F2",No metabolic activities were detected
same,turnover by recombinant enzymes,"[4]; CYP3A4, CYP2J2, CYP1A1, FMO1, and FM03, 0.75 and 20 µmol/L, 15 min",high turnover
same,"fm,CYP","CYP2J2; CYP2J2, share of total CYP-mediated metabolism in HLM",0.8%
same,fumic,CYP2J2; CYP2J2 incubation,0.86

# — PMC7287031 (Pharmacology Research & Perspectives, 2020)
